Biological target: T1, GLP-1R (Homo sapiens, UniProt P43220)
T1 construct: host or cells: CHO cells
Experiment: GLP-1R activation cAMP assay (Assay 1 or Assay 2)
Type: cell-based
Conditions: cAMP increase in CHO cells stably expressing GLP-1R; compounds run on one of the two cAMP assays
Method: GLP-1R ACTIVATION—cAMP Assay 1
GLP-1R activation by compounds of the present disclosure was quantified by measuring cAMP increase in CHO cells stably expressing GLP-1R (MultiSpan product #C1267-1a). The cells were harvested and plated in growth medium (DMEM/F-12 (Corning product #10-090-CV) supplemented with 10% FBS (HyClone product #SH30071-03), penicillin/streptomycin (Corning product #30-002CI) and 10 μg/ml puromycin (Gibco product #A11138-03)) at 1,000 cells/well in a 384-well plate (Greiner product #781080). The cells were then incubated overnight at 37° C., 5% CO2. The next day, the medium was removed and the cells were washed with DPBS (Corning product #21-031-CM) before adding the assay medium (HBSS, Corning product #21-023-CV) with 20 mM Hepes (Gibco product #15630-080) and 0.1% BSA (Rockland Immunochemicals product #BSA-1000)). Following the medium change, the cells were incubated for 1 hour at 37° C., 5% CO2. The tested GLP-1 compound was added to the cells in a 10-point dose response followed by a 30-minute incubation at 37° C., 5% CO2. cAMP concentration increase was then detected using Cisbio's cAMP Gs Dynamic Kit (product #62AM4PEC) according to the manufacturer's protocol. The response was plotted against the log of the agonist concentration and fitted to a sigmoidal equation to determine the EC50.
GLP-1R ACTIVATION—cAMP Assay 2
GLP-1R activation by small molecule agonists was quantified by measuring cAMP increase in CHO cells stably expressing GLP-1R (MultiSpan product #C1267-1a). 50 nL of agonists were pre-spotted in a 10-point dose response onto 384-well plate (Corning product #CL3826) using the Labcyte Echo System.

T1 sequence (P43220 24-463): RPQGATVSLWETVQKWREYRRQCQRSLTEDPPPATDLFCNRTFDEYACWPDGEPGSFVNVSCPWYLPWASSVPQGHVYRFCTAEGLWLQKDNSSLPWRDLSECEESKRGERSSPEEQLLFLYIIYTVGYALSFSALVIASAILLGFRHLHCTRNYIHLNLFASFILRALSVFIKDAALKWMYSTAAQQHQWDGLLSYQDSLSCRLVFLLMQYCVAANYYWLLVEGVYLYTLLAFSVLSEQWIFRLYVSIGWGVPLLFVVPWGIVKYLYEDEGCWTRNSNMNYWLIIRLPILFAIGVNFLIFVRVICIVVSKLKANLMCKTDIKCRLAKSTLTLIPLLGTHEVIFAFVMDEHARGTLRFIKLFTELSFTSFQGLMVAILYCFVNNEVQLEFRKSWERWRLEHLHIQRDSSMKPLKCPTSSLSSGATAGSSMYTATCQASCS

Work on `O=C(O)c1ccc2nc(Cc3cc(F)c(-c4cccc(OCc5ccn(C6COC6)n5)n4)cc3F)n(C[C@@H]3CCO3)c2c1` [Example 10, (S)-2-(2,5-difluoro-4-(6-((1-(oxetan-3-yl)-1H-pyrazol-3-yl)methoxy)pyridin-2-yl)benzyl)-1-(oxetan-2-ylmethyl)-1H-benzo[d]imidazole-6-carboxylic acid] yielded an EC50 of 7.55 nM.
`N#CC1(NC(=O)c2ccc(COc3cccc(-c4cc(F)c(Cc5nc6ccc(C(=O)O)cc6n5C[C@@H]5CCO5)cc4F)n3)cn2)CC1` [Example 183, (S)-2-(4-(6-((6-((1-cyanocyclopropyl)carbamoyl)pyridin-3-yl)methoxy)pyridin-2-yl)-2,5-difluorobenzyl)-1-(oxetan-2-ylmethyl)-1H-benzo[d]imidazole-6-carboxylic acid] gave an EC50 of 0.26 nM.
`CCOc1nnc(COc2nc(-c3cc(Cl)c(Cc4nc5ccc(C(=O)O)cc5n4[C@@H]4COCC4(C)C)cc3C)ccc2F)s1` [Example 420, (S)-2-(2-chloro-4-(6-((5-ethoxy-1,3,4-thiadiazol-2-yl)methoxy)-5-fluoropyridin-2-yl)-5-methylbenzyl)-1-(4,4-dimethyltetrahydrofuran-3-yl)-1H-benzo[d]imidazole-6-carboxylic acid] showed an EC50 of 0.178 nM.
Compound `O=C(O)c1ccc2nc(Cc3cc(F)c(-c4cccc(OCc5nnc(C6CC6)s5)n4)cc3F)n(C[C@@H]3CCO3)c2c1` [Example 307, (S)-2-(4-(6-((5-cyclopropyl-1,3,4-thiadiazol-2-yl)methoxy)pyridin-2-yl)-2,5-difluorobenzyl)-1-(oxetan-2-ylmethyl)-1H-benzo[d]imidazole-6-carboxylic acid] has an EC50 of 0.59 nM.
For `Cn1ccc(C#Cc2ccc(COc3cccc(-c4cc(F)c(Cc5nc6ccc(C(=O)O)cc6n5C[C@@H]5CCO5)cc4F)n3)c(F)c2)cc1=O` [Example 357, (S)-2-(2,5-difluoro-4-(6-((2-fluoro-4-((1-methyl-2-oxo-1,2-dihydropyridin-4-yl)ethynyl)benzyl)oxy)pyridin-2-yl)benzyl)-1-(oxetan-2-ylmethyl)-1H-benzo[d]imidazole-6-carboxylic acid], the EC50 was 0.508 nM.
`O=C(O)c1ccc2nc(Cc3cc(F)c(-c4cccc(OCc5ncc(OCC(F)F)s5)n4)cc3F)n(C[C@@H]3CCO3)c2c1` [Example 56, (S)-2-(4-(6-((5-(2,2-difluoroethoxy)thiazol-2-yl)methoxy)pyridin-2-yl)-2,5-difluorobenzyl)-1-(oxetan-2-ylmethyl)-1H-benzo[d]imidazole-6-carboxylic acid] gave an EC50 of 7.19 nM.
With `O=C(O)c1ccc2nc(Cc3cc(F)c(-c4cccc(OCc5nnc(-c6cnn(C(F)F)c6)s5)n4)cc3F)n(C[C@@H]3CCO3)c2c1` [Example 92, (S)-2-(4-(6-((5-(1-(difluoromethyl)-1H-pyrazol-4-yl)-1,3,4-thiadiazol-2-yl)methoxy)pyridin-2-yl)-2,5-difluorobenzyl)-1-(oxetan-2-ylmethyl)-1H-benzo[d]imidazole-6-carboxylic acid] the EC50 was 0.07 nM.
`CC1(C#Cc2cnc(COc3cccc(-c4cc(F)c(Cc5nc6c(F)cc(C(=O)O)cc6n5C[C@@H]5CCO5)cc4F)n3)c(Cl)c2)CC1` [Example 379, (S)-2-(4-(6-((3-chloro-5-((1-methylcyclopropyl)ethynyl)pyridin-2-yl)methoxy)pyridin-2-yl)-2,5-difluorobenzyl)-4-fluoro-1-(oxetan-2-ylmethyl)-1H-benzo[d]imidazole-6-carboxylic acid] showed an EC50 of 0.303 nM.
Compound `NC(=O)c1ccc(COc2nccc(-c3cc(F)c(Cc4nc5ccc(C(=O)O)cc5n4C[C@@H]4CCO4)cc3F)n2)c(OC(F)F)n1` [Example 223, (S)-2-(4-(2-((6-carbamoyl-2-(difluoromethoxy)pyridin-3-yl)methoxy)pyrimidin-4-yl)-2,5-difluorobenzyl)-1-(oxetan-2-ylmethyl)-1H-benzo[d]imidazole-6-carboxylic acid] has an EC50 of 0.51 nM.
Work on `O=C(O)c1ccc2nc(Cc3cc(F)c(-c4cccc(OCc5nnc(-c6cnn(C7CC7)c6)s5)n4)cc3F)n(C[C@@H]3CCO3)c2c1` [Example 96, (S)-2-(4-(6-((5-(1-cyclopropyl-1H-pyrazol-4-yl)-1,3,4-thiadiazol-2-yl)methoxy)pyridin-2-yl)-2,5-difluorobenzyl)-1-(oxetan-2-ylmethyl)-1H-benzo[d]imidazole-6-carboxylic acid] yielded an EC50 of 0.13 nM.
Work on `N#CC1(NC(=O)c2cc(Cl)c(COc3cccc(-c4cc(F)c(Cc5nc6c(F)cc(C(=O)O)cc6n5C[C@@H]5CCO5)cc4F)n3)cn2)COC1` [Example 188, (S)-2-(4-(6-((4-chloro-6-((3-cyanooxetan-3-yl)carbamoyl)pyridin-3-yl)methoxy)pyridin-2-yl)-2,5-difluorobenzyl)-4-fluoro-1-(oxetan-2-ylmethyl)-1H-benzo[d]imidazole-6-carboxylic acid] yielded an EC50 of 0.05 nM.
With `COc1cc(C(=O)NC2(C#N)CC2)ncc1COc1cccc(-c2cc(F)c(Cc3nc4ccc(C(=O)O)cc4n3C[C@@H]3CCO3)cc2F)n1` [Example 41, (S)-2-(4-(6-((6-((1-cyanocyclopropyl)carbamoyl)-4-methoxypyridin-3-yl)methoxy)pyridin-2-yl)-2,5-difluorobenzyl)-1-(oxetan-2-ylmethyl)-1H-benzo[d]imidazole-6-carboxylic acid] the EC50 was 0.17 nM.
With `O=C(O)c1ccc2nc(Cc3cc(F)c(-c4cccc(OCc5cnc(C(=O)NCC(F)F)cc5Cl)n4)cc3F)n(C[C@@H]3CCO3)c2c1` [Example 192, (S)-2-(4-(6-((4-chloro-6-((2,2-difluoroethyl)carbamoyl)pyridin-3-yl)methoxy)pyridin-2-yl)-2,5-difluorobenzyl)-1-(oxetan-2-ylmethyl)-1H-benzo[d]imidazole-6-carboxylic acid] the EC50 was 0.32 nM.
`COc1nnc(COc2cccc(-c3ccc(Cc4nc5ccc(C(=O)O)cc5n4[C@@H]4COCC4(C)C)c(F)c3)n2)s1` [Example 401, (S)-1-(4,4-dimethyltetrahydrofuran-3-yl)-2-(2-fluoro-4-(6-((5-methoxy-1,3,4-thiadiazol-2-yl)methoxy)pyridin-2-yl)benzyl)-1H-benzo[d]imidazole-6-carboxylic acid] showed an EC50 of 0.487 nM.
With `O=C(O)c1cc(F)c2nc(Cc3cc(F)c(-c4cccc(OCc5ncc(Cl)s5)n4)cc3F)n(C[C@@H]3CCO3)c2c1` [Example 319, (S)-2-(4-(6-((5-chlorothiazol-2-yl)methoxy)pyridin-2-yl)-2,5-difluorobenzyl)-4-fluoro-1-(oxetan-2-ylmethyl)-1H-benzo[d]imidazole-6-carboxylic acid] the EC50 was 0.034 nM.
`N#CC1(Cn2cc(-c3ccc(COc4cccc(-c5cc(F)c(Cc6nc7ccc(C(=O)O)cc7n6C[C@@H]6CCO6)cc5F)n4)c(F)c3)cn2)CC1` [Example 159, (S)-2-(4-(6-((4-(1-((1-cyanocyclopropyl)methyl)-1H-pyrazol-4-yl)-2-fluorobenzyl)oxy)pyridin-2-yl)-2,5-difluorobenzyl)-1-(oxetan-2-ylmethyl)-1H-benzo[d]imidazole-6-carboxylic acid] showed an EC50 of 0.18 nM.
With `O=C(O)c1ccc2nc(Cc3cc(F)c(-c4cccc(OCc5ccc(-c6cn(C7CCOCC7)nn6)cc5F)n4)cc3F)n(C[C@@H]3CCO3)c2c1` [Example 218, (S)-2-(2,5-difluoro-4-(6-((2-fluoro-4-(1-(tetrahydro-2H-pyran-4-yl)-1H-1,2,3-triazol-4-yl)benzyl)oxy)pyridin-2-yl)benzyl)-1-(oxetan-2-ylmethyl)-1H-benzo[d]imidazole-6-carboxylic acid] the EC50 was 0.8 nM.
For `CC1(C)COC[C@H]1n1c(Cc2cc(F)c(-c3ccc(F)c(OCc4ncc(C(F)(F)F)s4)n3)cc2F)nc2c(F)cc(C(=O)O)cc21` [Example 252, 2-[[2,5-difluoro-4-[5-fluoro-6-[[5-(trifluoromethyl)thiazol-2-yl]methoxy]-2-pyridyl]phenyl]methyl]-3-[(3S)-4,4-dimethyltetrahydrofuran-3-yl]-7-fluoro-benzimidazole-5-carboxylic acid], the EC50 was 0.075 nM.
Compound `O=C(O)c1ccc2nc(Cc3cc(F)c(-c4cccc(OCc5ccc(C#Cc6cnn(C(F)F)c6)cc5F)n4)cc3F)n(C[C@@H]3CCO3)c2c1` [Example 287, (S)-2-(4-(6-((4-((1-(difluoromethyl)-1H-pyrazol-4-yl)ethynyl)-2-fluorobenzyl)oxy)pyridin-2-yl)-2,5-difluorobenzyl)-1-(oxetan-2-ylmethyl)-1H-benzo[d]imidazole-6-carboxylic acid] has an EC50 of 0.185 nM.
`Cn1cc(C#Cc2ccc(COc3cccc(-c4cc(F)c(Cc5nc6ccc(C(=O)O)cc6n5C[C@@H]5CCO5)cc4F)n3)c(F)c2)nn1` [Example 301, (S)-2-(2,5-difluoro-4-(6-((2-fluoro-4-((1-methyl-1H-1,2,3-triazol-4-yl)ethynyl)benzyl)oxy)pyridin-2-yl)benzyl)-1-(oxetan-2-ylmethyl)-1H-benzo[d]imidazole-6-carboxylic acid] gave an EC50 of 0.341 nM.

Source: patent US20250312352A1, “GLP-1R MODULATING COMPOUNDS” (Gilead Sciences, Inc., priority 2021, published 2025)
